# According to patent publication US20190327961A1, “STABLE SOLID COMPOSITION BASED ON AN AROMATIC COMPOUND AND USES THEREOF” (priority 2016, published 2019):
# Key:
# E. coli [1] = assay: Antibacterial action compared with glutaraldehyde in 96-well microplates; assay type: cell-based; conditions: for bacterial growth (optical density, 600-nm wavelength): E. coli, 37° C., 24 hours
# E. coli [2] = assay: Disinfection of an artificially contaminated fibroscope; conditions: fibroscope contaminated with E. coli, disinfectant at (1/10)
# rot of clementines [3] = assay: Tracking of the rot rate of clementines in a packing station; assay type: in vivo, clementines (Afourar variety)
# Penicillium digitatum = assay: Drenching and waxing of clementines infected by injection of spores; assay type: in vivo, clementines (Afourar variety); conditions: fruits waxed only (batches 3 and 4)
# rot of clementines [4] = assay: Drenching and waxing of non-infected, experimentally damaged clementines; assay type: in vivo, clementines (Afourar variety); conditions: washed then waxed, 27° C.
smiles,measurement,setting,value
"O=CCCCC=O [Glutaraldehyde, glutaraldehyde]",inhibiting minimal concentration (CMI),"E. coli [1]; E. coli suspension on the order of 10^8 UFC/ml, expressed as dilution",obtained only with the pure disinfectant
same,"bacterial growth (optical density, 600-nm wavelength)",E. coli [1]; concentration 1,0
same,"bacterial growth (optical density, 600-nm wavelength)",E. coli [1]; concentration 1/10,0.13 ± 0.002
same,"bacterial growth (optical density, 600-nm wavelength)",E. coli [1]; concentration 1/100,0.15 ± 0.002
same,"bacterial growth (optical density, 600-nm wavelength)",E. coli [1]; concentration 1/250,0.17 ± 0.003
same,"bacterial growth (optical density, 600-nm wavelength)",E. coli [1]; concentration 1/500,0.20 ± 0.002
same,"bacterial growth (optical density, 600-nm wavelength)",E. coli [1]; concentration 1/750,0.20 ± 0.002
same,"bacterial growth (optical density, 600-nm wavelength)","E. coli [1]; concentration 1/1,000",0.22 ± 0.012
same,"bacterial growth (optical density, 600-nm wavelength)","E. coli [1]; concentration 1/2,000",0.28 ± 0.035
same,"bacterial growth (optical density, 600-nm wavelength)","E. coli [1]; concentration 1/4,000",0.34 ± 0.007
same,"bacterial growth (optical density, 600-nm wavelength)","E. coli [1]; concentration 1/8,000",0.47 ± 0.034
same,"bacterial growth (optical density, 600-nm wavelength)","E. coli [1]; concentration 1/16,000",0.50 ± 0.005
same,bacterial load After Disinfection,E. coli [2],Layers
same,bacterial load After Disinfection,E. coli [2]; listed as glutaraldehyde,layer of bacteria
C=CCOC(Cn1ccnc1)c1ccc(Cl)cc1Cl (stereo not shown) [imazalil],Percentage of Rotten Fruits,"rot of clementines [3]; Storage at 8° C., Week 1",2.63%
same,Percentage of Rotten Fruits,"rot of clementines [3]; Storage at 8° C., Week 2",1.35%
same,Percentage of Rotten Fruits,"rot of clementines [3]; Storage at 8° C., Week 3",2.16%
same,Percentage of Rotten Fruits,"rot of clementines [3]; Storage at 8° C., Week 4",4.67%
same,Percentage of Rotten Fruits,"rot of clementines [3]; Storage at 25° C., Week 1",7.78%
same,Percentage of Rotten Fruits,"rot of clementines [3]; Storage at 25° C., Week 2",6.91%
same,Percentage of Rotten Fruits,"rot of clementines [3]; Storage at 25° C., Week 3",9.68%
same,Percentage of Rotten Fruits,"rot of clementines [3]; Storage at 25° C., Week 4",8.43%
same,day after infection on which rot begins,"Penicillium digitatum; P. digitatum injected, 20° C.",starting from the fourth day
same,diameter of the rot,Penicillium digitatum; after 7 days,2.55 cm
same,Percentage of the Rotten Surface on the Fruits,rot of clementines [4]; 4 D,0%
same,Percentage of the Rotten Surface on the Fruits,rot of clementines [4]; 6 D,7%
same,Percentage of the Rotten Surface on the Fruits,rot of clementines [4]; 8 D,11%
same,Percentage of the Rotten Surface on the Fruits,rot of clementines [4]; 10 D,17%
same,Percentage of the Rotten Surface on the Fruits,rot of clementines [4]; 12 D,29%
same,Percentage of the Rotten Surface on the Fruits,rot of clementines [4]; 14 D,38%
same,Percentage of the Rotten Surface on the Fruits,rot of clementines [4]; 16 D,44%
